“Also recorded” adds a separate entry of the source. Where two headings read alike, the source gives them in different places.
Experiments:
[1] = tested on: neuronally differentiated PC-12 cells; test: Protection from rotenone induced toxicity in neuronally differentiated PC-12 cells; assay type: cell-based
Procedure: Rotenone is a complex I poison and is widely used in cell culture and animal models of PD. (20, 31, 32) To determine if PIP-1 protects cells from rotenone insult, PC-12 cells are neuronally differentiated (with neuronal growth factor β for 10 days) and then treated with 10 μM rotenone and a range of PIP-1 concentrations. After 72 hours, cell death is assessed using propidium iodide staining as measured by flow cytometry. […] To determine the features on PIP-1 that are important for PARG inhibition and cell protection, three derivatives are constructed that lacked key functionality (see FIG. 19 compounds labeled 3, 4 and 5).
Cell culture conditions: HL-60 and SK-N-SH cells are grown in RPMI 1640 media supplemented with 10% FBS and PC-12 cells are grown in RPMI 1640 media supplemented with 10% HS and 5% FBS. All cell lines are incubated at 37° C. in a 5% CO2, 95% air atmosphere. HL-60 cells are split every two to three days as needed and SK-N-SH cells are split when they reach approximately 90% confluency at a 1:6 ratio. SK-N-SH cells are differentiated by adding media containing 10 μM retinoic acid (in DMSO). Media is replaced every other day and cells are differentiated for a total of 12 days. PC-12 cells are differentiated by adding media containing 25 ng/mL Neuronal Growth Factro β. Media is replaced every other day and cells are differentiated for a total of 10 days. Differentiation is observed by microscopy.
Protection of Rotenone and MPP^+ induced toxicity in PC-12 and SK-N-SH cells: SK-N-SH and PC-12 cells are neuronally differentiated as described above. 10 μM rotenone, 10 μM MPP^+ and various concentrations of PIP-1 or its derivatives are added to the cells and incubated for 72 h. The cells are then washed in PBS and the viability is determined by adding propidium iodide to 1 μg/mL and measuring the fluorescent intensity of each cell by flow cytometry.

U-937 cells = test: Protection against H2O2 treatment of U-937 cells (cell survival); assay type: cell-based; conditions: FIG. 13
Procedure: We have made multiple derivatives of PIP-1; these compounds are shown below in Table 2 and in FIG. 11 and labeled Structures 1-39. The neuroprotective effects of structures 1-26 were tested in the cellular assay and compared to the neuroprotective effect of PIP-1 (FIG. 13).
PIP-1 and structures 1-26 were screened for protection against H2O2 treatment of U-937 cells FIG. 13.

PARG = PARG (Bos taurus, UniProt O02776); test: Inhibition of PARG activity in vitro (quantitation of free ADP-ribose with benzamidine, fluorescence); assay type: biochemical; design: purchased Biomol
Procedure: PARG assay: Production and purification of PAR. PARP-1 (20 units) is added to 900 μL of PARP assay buffer containing 1 mM NAD^+ and 22.5 μg activated DNA. This reaction was run at 37° C. for 30 min and stopped by the addition of 300 μL of cold 100% trichloroacetic acid. The proteins thus precipitated are collected by centrifugation at 18,000 g for 30 min at 4° C. After removal of the supernatant, 1 mL of 1 M NaOH and 100 mM EDTA are added to the pellet and incubated for 2 h at 37° C. to cleave the PAR from the PARP protein acceptor. Then 9 mL of PAR buffer A (250 mM ammonium acetate, 6 M guanidinium HCl, 10 mM EDTA, pH 9.0) is added to the PAR and applied to a PROSEP-PB (Millipore) phenyl boronate column that is pre-equilibrated with PAR buffer A. The flowthrough is then reapplied to the column to ensure that all PAR is bound. The column is then washed with 25 mL of PAR buffer A, followed by 10 mL of PAR buffer B (1 M ammonium acetate and 1 mM EDTA, pH 9.0). The bound PAR is eluted with 4 mL of water collected in 1-mL fractions. Fractions containing PAR are pooled and concentrated. The concentration, measured as monomer, is determined by measuring the absorbance at 258 nm. PAR has an extinction coefficient of 13,500 cm^−1 at 258 nm.
Inhibition of PARG Activity: To determine the PARG IC50 values of the compounds, 39 μL of a 25.6 μM solution of PAR in PARG assay (50 mM KCl, 50 mM KH2PO4, pH 7.2) buffer and 1 μL of the compounds at varying concentrations (in PARG assay buffer) are added into the wells of a 384-well plate. The reaction is initiated by the addition of 10 μL of PARG (Biomol) at a concentration of 1 ng/ml (in PARG assay buffer), bringing the final concentration to […] and 20 μM PAR with varying concentrations of compounds in a total volume of 50 μL. The plate is incubated for 20 min at room temperature. The amount of free ADP-ribose hemiacetals is determined by the addition of 5 μL of an aqueous 8.5M KOH solution and 5 μL of an aqueous 850 μM benzamidine solution to each well. The plate is then incubated for 10 min in an oven set at 110° C. The plate is allowed to cool and then read on a Criterion Analyst AD with an excitation of 360 nm and an emission of 445 nm.

[2] = tested on: poly(ADP-ribose) in PC-12 cells; test: Intracellular PAR staining in H2O2-treated PC-12 cells (flow cytometry); assay type: cell-based; conditions: PC-12 cells pre-treated with PIP-1, then H2O2
Procedure: Screening of the 22,000 compounds in this manner produced 38 primary hits (FIG. 15A—“initial hits”). These 38 compounds are assessed for their ability to inhibit PARP-1 and PARG using standard in vitro assays. (12, 29) 20 compounds are PARP-1 inhibitors, and 3 are PARG inhibitors (FIG. 15A). Compounds 1 and 2 inhibit PARG quite well, with IC50 values of ˜0.4-0.5 μM (FIG. 15C). […] Subsequent efforts therefore focused on compound 1, which is named PIP-1 (pyridazinone inhibitor of PARG), and derivatives thereof. […] To determine if PIP-1 could induce the build-up of PAR in cell culture, PC-12 cells were treated with a range of PIP-1 concentrations; H2O2 was then added to induce PARP-1 activity and the cellular PAR levels were quantitated with an anti-PAR antibody and flow cytometry.
Intracellular PAR staining: 1 mL of 10^6 cells/mL PC-12 cells is added to the wells of a 24-well plate. Varying concentrations of PIP-1 or DMSO as a control are added to the cells and incubated for 2 h at 37° C. H2O2 is added to the cells to approximately […]. After a 2 h incubation at 37° C., the cells are thoroughly washed in PBS and fixed overnight in 4° C. ethanol. The cells are again washed in PBS and stained with a 1:50 dilution of anti-poly(ADP-ribose) antibody for 4 h at 4° C. […] After washing with PBS, the fluorescent intensity of each cell is determined by flow cytometry.

PARG, sequence (O02776 whole entry): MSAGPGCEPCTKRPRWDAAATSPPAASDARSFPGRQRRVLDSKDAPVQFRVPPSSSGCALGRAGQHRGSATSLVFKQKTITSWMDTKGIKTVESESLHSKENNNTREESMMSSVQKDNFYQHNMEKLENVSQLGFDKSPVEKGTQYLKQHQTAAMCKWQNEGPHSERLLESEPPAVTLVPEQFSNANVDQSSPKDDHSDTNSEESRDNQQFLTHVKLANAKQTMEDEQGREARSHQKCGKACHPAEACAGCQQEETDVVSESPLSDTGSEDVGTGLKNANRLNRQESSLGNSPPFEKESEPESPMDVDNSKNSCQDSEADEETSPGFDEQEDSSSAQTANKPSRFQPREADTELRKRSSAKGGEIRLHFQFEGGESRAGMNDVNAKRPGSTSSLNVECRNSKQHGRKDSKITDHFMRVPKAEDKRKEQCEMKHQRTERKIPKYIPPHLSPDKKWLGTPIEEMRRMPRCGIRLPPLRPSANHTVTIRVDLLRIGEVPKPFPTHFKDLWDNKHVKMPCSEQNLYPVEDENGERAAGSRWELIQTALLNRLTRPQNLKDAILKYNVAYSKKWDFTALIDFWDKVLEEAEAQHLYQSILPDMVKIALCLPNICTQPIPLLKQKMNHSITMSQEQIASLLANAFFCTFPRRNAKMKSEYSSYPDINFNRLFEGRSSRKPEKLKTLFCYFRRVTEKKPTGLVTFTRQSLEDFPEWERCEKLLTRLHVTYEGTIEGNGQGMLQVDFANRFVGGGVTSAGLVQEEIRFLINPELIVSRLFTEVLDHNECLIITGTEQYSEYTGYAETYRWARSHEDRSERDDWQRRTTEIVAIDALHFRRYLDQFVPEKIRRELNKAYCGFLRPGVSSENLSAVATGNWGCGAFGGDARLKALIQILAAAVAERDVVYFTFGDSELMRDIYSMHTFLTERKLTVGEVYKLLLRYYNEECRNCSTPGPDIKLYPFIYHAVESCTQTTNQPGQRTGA

SMILES	Protection of rotenone-treated neuronally differentiated PC-12 cells (in words) [1]	EC50 ([1]; Rattus norvegicus, differentiated PC-12 cells, 10 μM rotenone, 72 h, read-out: EC50 (IC50) for protection from rotenone induced toxicity) [nM]	Protection of U-937 cells treated with H2O2 (activity compared to PIP-1) (U-937 cells)	IC50 (PARG) [nM]	PARG inhibition in vitro (in words) (PARG)	Accumulation of intracellular PAR [2]	Protection of rotenone-treated neuronally differentiated PC-12 cells (in words) ([1]; listed as analogue 5)	PARG inhibition in vitro (in words) (PARG; listed as analogue 5)
CN(C)c1cnn(-c2ccccc2)c(=O)c1N [PIP-1, 4-Amino-5-dimethylamino-2-phenyl-2H-pyridazin-3-one]	protect	5360	activity similar or better than PIP-1	490	inhibits PARG in vitro in a dose-dependent manner; also recorded: inhibits PARG in vitro in a dose dependent manner; also recorded: inhibit PARG activity in vitro	dose-dependent accumulation of intracellular PAR		
Nc1c(Cl)cnn(-c2ccccc2)c1=O [compound 5, 4-Amino-5-chloro-2-phenyl-2H-pyridazin-3-one]	inactive				inactive; also recorded: does not inhibit PARG		do not protect	do not inhibit NAD^+ depletion or PARG activity

Reference: US20090012088A1 (priority 2005, published 2009)
